Read-outs that look alike come from different tables or passages of the source.
How the values were obtained:
[1] = tested on: HIV1 strain NL4-3; type: cell-based; conditions: normalized mean of HIV1 replication readout
[2] = tested on: HCV replicon; type: cell-based; conditions: normalized mean of HCV replicon readout
[3] = tested on: F. novicida (strain U112); type: cell-based
[4] = tested on: influenza A H1N1 virus; conditions: 48 hr post-treatment, A549
[5] = tested on: EBV; conditions: for EBV Norm MEAN: normalized mean of EBV replication readout

| Substance | HIV1 Norm MEAN [1] | HCV Norm MEAN [2] | Francisella novicida Norm AUC [3] | Neuraminidase activity normalized to vehicle ([4]; 200 µM peptide) | Neuraminidase activity normalized to vehicle ([4]; 0,823 µM peptide) | Neuraminidase activity normalized to vehicle ([4]; 22,2 µM peptide) | Neuraminidase activity normalized to vehicle ([4]; 2,4691 µM peptide) | Neuraminidase activity normalized to vehicle ([4]; 7,4074 µM peptide) | Neuraminidase activity normalized to vehicle ([4]; 66,6667 µM peptide) | enhancement of EBV signal ([5]; 20 µM peptide, Hone-1 cells, 48 h) | EBV Norm MEAN [5] | HIV1 Norm MEAN ([1]; peptide screen) | HCV Norm MEAN ([2]; peptide screen) | EBV Norm MEAN ([5]; peptide screen) |
| --- | --- | --- | --- | --- | --- | --- | --- | --- | --- | --- | --- | --- | --- | --- |
| CPEP71: viral library peptide from HIV1 Integrase, targets IPO7 (WKGPAKLLWKG) | 1.077 | 0.4108 | 1.748 | 0,1137 | 0,7606 | 1,0288 | 1,0227 | 0,9266 | 0,9918 | more than 2 fold | 2.918 | – | – | – |
| CPEP74: peptide of the viral peptide library; sequence page not shown (ALGISYGRKKRRQ) | 1.112 | 0.6842 | 1.149 | 0,8907 | 0,913 | 0,9469 | 1,0192 | 0,9165 | 0,9895 | – | 1.663 | – | – | – |
| CPEP83: peptide of the viral peptide library; sequence page not shown (LHGLSAFSLHSYS) | 3.012 | 0.4141 | 1.204 | 0,249 | 0,6779 | 0,9424 | 0,9223 | 0,934 | 0,7894 | – | 0.5883 | – | – | – |
| CPEP86: peptide of the viral peptide library; sequence page not shown (SGFGPLITHG) | 0.7849 | 0.5296 | 0.8325 | 0,9563 | 0,7964 | 1,0588 | 1,0728 | 0,943 | 1,0345 | – | 1.554 | – | – | – |
| CPEP89: peptide of the viral peptide library; sequence page not shown (YDVLKAACKSVIKT) | – | – | 0.9882 | 0,097 | 0,8515 | 0,6685 | 0,8767 | 0,7891 | 0,2057 | – | – | 4.725 | 1.184 | 0.6285 |
| CPEP96: peptide of the viral peptide library; sequence page not shown (GRKKRRQRRRAHQ) | – | – | 1.029 | 0,8043 | 0,9089 | 0,9748 | 0,9539 | 0,8942 | 0,9344 | – | – | 0.5669 | 0.3919 | 1.164 |
| CPEP98: peptide of the viral peptide library; sequence page not shown (PLPPTKAPPIPPPR) | – | – | 1.1759 | 1,0266 | 0,8951 | 0,9384 | 0,9959 | 0,9005 | 0,9857 | – | – | 0.2763 | 0.3984 | 0.8005 |
| CPEP99: peptide of the viral peptide library; sequence page not shown (SWESHKSGGETRL) | – | – | 1.1 | 1,0243 | 0,9063 | 1,004 | 0,994 | 0,9109 | 1,1024 | – | – | 0.6504 | 0.3379 | 0.7952 |
| CPEP102: peptide of the viral peptide library; sequence page not shown (PHGPVQLSYYD) | 1.958 | 0.8145 | 0.8816 | 0,8099 | 0,6759 | 0,942 | 1,0283 | 0,877 | 1,0125 | – | 1.648 | – | – | – |
| CPEP103: viral library peptide from HCV NS4A targeting EEF1A1 (GCVVIVGRIVLSGK) | – | – | 0.5448 | 0,0978 | 0,8342 | 0,2828 | 0,8866 | 0,7276 | 0,1254 | – | – | 0.2448 | 0.4622 | 0.7665 |
| CPEP126: peptide of the viral peptide library; sequence page not shown (TQNLYPDLSEIKK) | – | – | 1.192 | 0,8408 | 0,9498 | 0,8904 | 0,9431 | 0,8627 | 0,9364 | – | – | 0.6553 | 0.4853 | 0.8026 |
| CPEP127: peptide of the viral peptide library; sequence page not shown (LVKPTVYVYSR) | 1.624 | 0.6257 | 0.4703 | 0,2557 | 0,9001 | 0,8705 | 1,007 | 0,8577 | 0,9535 | – | 0.673 | – | – | – |
| CPEP135: peptide of the viral peptide library; sequence page not shown (KGHRGSHTMNGH) | 0.5949 | 0.5732 | 1.216 | 0,865 | 0,9322 | 0,9598 | 0,9359 | 0,8333 | 0,9822 | – | 0.8556 | – | – | – |
| CPEP136: peptide of the viral peptide library; sequence page not shown (VTNDCPNSSIVYE) | – | – | 1.265 | 0,9602 | 0,8343 | 0,8466 | 0,9183 | 0,8168 | 0,9818 | – | – | 0.7957 | 0.4475 | 1.578 |
